≈ marks a conversion by molar mass, not a printed value. Like-named read-outs stand apart in the source and are kept apart here.
Tests used:
Assay in all cases: Minimal inhibitory concentration (MIC) assay
Assay type in all cases: cell-based
[1] = tested on: S. aureus ATCC 33592 (Sa92); details: Staphylococcus aureus
Description: (§1) Minimal inhibitory concentration (MIC) assay The standard microdilution method recommended by the Clinical and Laboratory Standards Institute (CLSI) was used to determine the MIC of the antibiotics. The starting concentration of compounds was 50 μg/ml and 2-fold dilution was done down the 96 honeycomb well plate column. The MIC assay was conducted in triplicates.

[2] = tested on: B. subtilis ATCC 6623 (Bs); details: Bacillus subtilis
Description: as §1

[3] = tested on: S. epidermidis 700296 (Se); details: Staphylococcus epidermidis, read-out: Antimicrobial activity (MIC) Se
Description: as §1

[4] = tested on: Enterococcus faecium ATCC 700221 (Em21); details: Enterococcus faecium
Description: as §1

[5] = tested on: S. aureus ATCC 700699 (Sa99); details: Staphylococcus aureus
Description: as §1

[6] = tested on: Enterococcus faecalis ATCC 29212 (Es12)
Description: as §1

[7] = tested on: S. aureus BAA-2312 (Sa12); details: Staphylococcus aureus
Description: as §1

[8] = tested on: S. aureus ATCC 33591 (Sa91); details: Staphylococcus aureus
Description: as §1

[9] = tested on: S. aureus ATCC 25923 (Sa23); details: Staphylococcus aureus
Description: as §1

[10] = ATCC33592, S. aureus ATCC 33592, antibiotic-resistant strain, read-out: Antimicrobial activity (MIC) Sa92
[11] = ATCC6623, B. subtilis ATCC 6623, read-out: Antimicrobial activity (MIC) Bs
[12] = ATCC700221, Enterococcus faecium ATCC 700221, read-out: Antimicrobial activity (MIC) Em21
[13] = ATCC700699, S. aureus ATCC 700699, antibiotic-resistant strain, read-out: Antimicrobial activity (MIC) Sa99
[14] = ATCC29212, Enterococcus faecalis ATCC 29212, read-out: Antimicrobial activity (MIC) Es12
[15] = BAA2312, S. aureus BAA-2312, antibiotic-resistant strain, read-out: Antimicrobial activity (MIC) Sa12
[16] = ATCC33591, S. aureus ATCC 33591, antibiotic-resistant strain, read-out: Antimicrobial activity (MIC) Sa91
[17] = ATCC25923, S. aureus ATCC 25923, antibiotic susceptible strain, read-out: Antimicrobial activity (MIC) Sa23

Row | Compound | MIC [1, 10] | MIC [2, 11] | MIC ([3]; S. epidermidis 700296) | MIC [4, 12] | MIC [5, 13] | MIC [6, 14] | MIC [7, 15] | MIC [8, 16] | MIC [9, 17] | MIC ([1]; ATCC33592, read-out: Antimicrobial activity (MIC) Sa92) | MIC ([2]; ATCC6623, read-out: Antimicrobial activity (MIC) Bs) | MIC [3] | MIC ([4]; ATCC700221, read-out: Antimicrobial activity (MIC) Em21) | MIC ([5]; ATCC700699, read-out: Antimicrobial activity (MIC) Sa99) | MIC ([6]; Enterococcus faecalis, ATCC29212, read-out: Antimicrobial activity (MIC) Es12) | MIC ([7]; BAA2312, read-out: Antimicrobial activity (MIC) Sa12) | MIC ([8]; ATCC33591, read-out: Antimicrobial activity (MIC) Sa91) | MIC ([9]; ATCC25923, read-out: Antimicrobial activity (MIC) Sa23)
1 | C=C(C)[C@@H]1CC=C2c3sc(Cc4ccccc4)nc3C[C@@H](C)[C@]2(C)C1 [Compound 3, (5R,5aS,7R)-2-benzyl-7-isopropenyl-5,5a-dimethyl-5,6,7,8-tetrahydro-4H-benzo[g][1,3]benzothiazole] | > 100 µg/mL | > 100 µg/mL | > 100 µg/mL | > 100 µg/mL | > 100 µg/mL | > 100 µg/mL | > 100 µg/mL | > 100 µg/mL | > 100 µg/mL |  |  |  |  |  |  |  |  | 
2 | C=C(C)[C@@H]1CC=C2c3sc(Cc4ccccc4C)nc3C[C@@H](C)[C@]2(C)C1 [Compound 4, (5R,5aS,7R)-7-isopropenyl-5,5a-dimethyl-2-(o-tolylmethyl)-5,6,7,8-tetrahydro-4H-benzo[g][1,3]benzothiazole] |  |  |  |  |  |  |  |  |  | > 100 µg/mL | > 100 µg/mL | > 100 µg/mL | > 100 µg/mL | > 100 µg/mL | > 100 µg/mL | > 100 µg/mL | > 100 µg/mL | > 100 µg/mL
3 | C=C(C)[C@@H]1CC=C2c3sc(C4CCOCC4)nc3C[C@@H](C)[C@]2(C)C1 [Compound 5, (5R,5aS,7R)-7-isopropenyl-5,5a-dimethyl-2-tetrahydropyran-4-yl-5,6,7,8-tetrahydro-4H-benzo[g][1,3]benzothiazole] | 100 µg/mL (≈ 291 µM) | 50 µg/mL (≈ 146 µM) | > 100 µg/mL | > 100 µg/mL | > 100 µg/mL | > 100 µg/mL | 100 µg/mL (≈ 291 µM) | > 100 µg/mL | 100 µg/mL (≈ 291 µM) |  |  |  |  |  |  |  |  | 
4 | C=C(C)[C@@H]1CC=C2c3sc(-c4ccc(Oc5ccc(C(F)(F)F)cn5)cc4)nc3C[C@@H](C)[C@]2(C)C1 [Compound 12, (5R,5aS,7R)-7-isopropenyl-5,5a-dimethyl-2-[4-[[5-(trifluoromethyl)-2-pyridyl]oxy]phenyl]-5,6,7,8-tetrahydro-4H-benzo[g][1,3]benzothiazole] | > 100 µg/mL | > 100 µg/mL | > 100 µg/mL | > 100 µg/mL | > 100 µg/mL | > 100 µg/mL | > 100 µg/mL | > 100 µg/mL |  |  |  |  |  |  |  |  |  | 
5 | C=C(C)[C@@H]1CC=C2c3sc(Nc4ccccc4C(F)(F)F)nc3C[C@@H](C)[C@]2(C)C1 [Compound 27, (5R,5aS,7R)-7-isopropenyl-5,5a-dimethyl-N-[2-(trifluoromethyl)phenyl]-5,6,7,8-tetrahydro-4H-benzo[g][1,3]benzothiazol-2-amine] | > 100 µg/mL | > 100 µg/mL | > 100 µg/mL | > 100 µg/mL | > 100 µg/mL | > 100 µg/mL | > 100 µg/mL | > 100 µg/mL |  |  |  |  |  |  |  |  |  | 
6 | C=C(C)[C@@H]1CC=C2c3sc(Nc4cccc(C(F)(F)F)c4)nc3CC[C@]2(C)[C@H]1C [Compound 28, (5aR,6S,7R)-7-isopropenyl-5a,6-dimethyl-N-[3-(trifluoromethyl)phenyl]-5,6,7,8-tetrahydro-4H-benzo[g][1,3]benzothiazol-2-amine] | > 100 µg/mL | > 100 µg/mL | > 100 µg/mL | > 100 µg/mL | > 100 µg/mL | > 100 µg/mL | > 100 µg/mL | > 100 µg/mL |  |  |  |  |  |  |  |  |  | 
7 | C=C(C)[C@@H]1CC=C2c3sc(Nc4ccccc4[N+](=O)[O-])nc3C[C@@H](C)[C@]2(C)C1 [Compound 29, (5R,5aS,7R)-7-isopropenyl-5,5a-dimethyl-N-(2-nitrophenyl)-5,6,7,8-tetrahydro-4H-benzo[g][1,3]benzothiazol-2-amine] | > 100 µg/mL | > 100 µg/mL | > 100 µg/mL | > 100 µg/mL | > 100 µg/mL | > 100 µg/mL | > 100 µg/mL | > 100 µg/mL |  |  |  |  |  |  |  |  |  | 

The next lines start with results.

Row | MIC [1, 10] | MIC [2, 11] | MIC ([3]; S. epidermidis 700296) | MIC [4, 12] | MIC [5, 13] | MIC [6, 14] | MIC [7, 15] | MIC [8, 16] | MIC [9, 17] | Compound | MIC ([1]; ATCC33592, read-out: Antimicrobial activity (MIC) Sa92) | MIC ([2]; ATCC6623, read-out: Antimicrobial activity (MIC) Bs) | MIC [3] | MIC ([4]; ATCC700221, read-out: Antimicrobial activity (MIC) Em21) | MIC ([5]; ATCC700699, read-out: Antimicrobial activity (MIC) Sa99) | MIC ([6]; Enterococcus faecalis, ATCC29212, read-out: Antimicrobial activity (MIC) Es12) | MIC ([7]; BAA2312, read-out: Antimicrobial activity (MIC) Sa12) | MIC ([8]; ATCC33591, read-out: Antimicrobial activity (MIC) Sa91) | MIC ([9]; ATCC25923, read-out: Antimicrobial activity (MIC) Sa23)
8 | > 100 µg/mL | > 100 µg/mL | > 100 µg/mL | > 100 µg/mL | > 100 µg/mL | > 100 µg/mL | > 100 µg/mL | > 100 µg/mL |  | C=C(C)[C@@H]1CC=C2c3sc(-c4ccccc4)nc3C[C@@H](C)[C@]2(C)C1 [Compound 7, (5R,5aS,7R)-7-isopropenyl-5,5a-dimethyl-2-phenyl-5,6,7,8-tetrahydro-4H-benzo[g][1,3]benzothiazole] |  |  |  |  |  |  |  |  | 
9 | > 100 µg/mL | > 100 µg/mL | > 100 µg/mL | > 100 µg/mL | > 100 µg/mL | > 100 µg/mL | > 100 µg/mL | > 100 µg/mL |  | C=C(C)[C@@H]1CC=C2c3sc(-c4ccc(C(C)(C)C)cc4)nc3C[C@@H](C)[C@]2(C)C1 [Compound 9, (5R,5aS,7R)-2-(4-tert-butylphenyl)-7-isopropenyl-5,5a-dimethyl-5,6,7,8-tetrahydro-4H-benzo[g][1,3]benzothiazole] |  |  |  |  |  |  |  |  | 
10 | > 100 µg/mL | 50 µg/mL (≈ 137 µM) | > 100 µg/mL | > 100 µg/mL | > 100 µg/mL | > 100 µg/mL | 100 µg/mL (≈ 274 µM) | 100 µg/mL (≈ 274 µM) | 50 µg/mL (≈ 137 µM) | C=C(C)[C@@H]1CC=C2c3sc(-c4ccc(OC)cc4)nc3C[C@@H](C)[C@]2(C)C1 [Compound 10, (5R,5aS,7R)-7-isopropenyl-2-(4-methoxyphenyl)-5,5a-dimethyl-5,6,7,8-tetrahydro-4H-benzo[g][1,3]benzothiazole] |  |  |  |  |  |  |  |  | 
11 | > 100 µg/mL | > 100 µg/mL | > 100 µg/mL | > 100 µg/mL | > 100 µg/mL | > 100 µg/mL | > 100 µg/mL | > 100 µg/mL | 50 µg/mL (≈ 132 µM) | C=C(C)[C@@H]1CC=C2c3sc(-c4cccc(OCC)c4)nc3C[C@@H](C)[C@]2(C)C1 [Compound 11, (5R,5aS,7R)-2-(3-ethoxyphenyl)-7-isopropenyl-5,5a-dimethyl-5,6,7,8-tetrahydro-4H-benzo[g][1,3]benzothiazole] |  |  |  |  |  |  |  |  | 
12 | > 100 µg/mL | 50 µg/mL (≈ 142 µM) | > 100 µg/mL | > 100 µg/mL | > 100 µg/mL | > 100 µg/mL | 100 µg/mL (≈ 284 µM) | 100 µg/mL (≈ 284 µM) | 50 µg/mL (≈ 142 µM) | C=C(C)[C@@H]1CC=C2c3sc(-c4ccccc4O)nc3C[C@@H](C)[C@]2(C)C1 [Compound 13, 2-[(5R,5aS,7R)-7-isopropenyl-5,5a-dimethyl-5,6,7,8-tetrahydro-4H-benzo[g][1,3]benzothiazol-2-yl]phenol] |  |  |  |  |  |  |  |  | 
13 | > 100 µg/mL | > 100 µg/mL | > 100 µg/mL | > 100 µg/mL | > 100 µg/mL | > 100 µg/mL | > 100 µg/mL | > 100 µg/mL | 50 µg/mL (≈ 142 µM) | C=C(C)[C@@H]1CC=C2c3sc(-c4cccc(O)c4)nc3C[C@@H](C)[C@]2(C)C1 [Compound 14, 3-[(5R,5aS,7R)-7-isopropenyl-5,5a-dimethyl-5,6,7,8-tetrahydro-4H-benzo[g][1,3]benzothiazol-2-yl]phenol] |  |  |  |  |  |  |  |  | 
14 | > 100 µg/mL | > 100 µg/mL | > 100 µg/mL | > 100 µg/mL | > 100 µg/mL | > 100 µg/mL | > 100 µg/mL | > 100 µg/mL |  | C=C(C)[C@@H]1CC=C2c3sc(-c4ccc(C(F)(F)F)cc4)nc3C[C@@H](C)[C@]2(C)C1 [Compound 22, (5R,5aS,7R)-7-isopropenyl-5,5a-dimethyl-2-[4-(trifluoromethyl)phenyl]-5,6,7,8-tetra-tetrahydro-4H-benzo[g][1,3]benzothiazole] |  |  |  |  |  |  |  |  | 
15 | > 100 µg/mL | > 100 µg/mL | > 100 µg/mL | > 100 µg/mL | > 100 µg/mL | > 100 µg/mL | > 100 µg/mL | > 100 µg/mL |  | C=C(C)[C@@H]1CC=C2c3sc(-c4ccc([N+](=O)[O-])cc4)nc3C[C@@H](C)[C@]2(C)C1 [Compound 23, (5R,5aS,7R)-7-isopropenyl-5,5a-dimethyl-2-(4-nitrophenyl)-5,6,7,8-tetrahydro-4H-benzo [g][1,3]benzothiazole] |  |  |  |  |  |  |  |  | 
